Consider 23 compounds from patent publication US20230000869A1, “NOVEL ALK2 INHIBITORS AND METHODS FOR INHIBITING BMP SIGNALING” (The Brigham and Women's Hospital, Inc., priority 2017, published 2023).

pIC50: −log10 of the molar value.

The target of one test is T1, ALK2 (Mus musculus, UniProt P37172).
T1 construct: endogenous in cells; host or cells: C2C12-BRE (BRE-Luc reporter line, G418 selection)
T1 sequence (P37172 21-509): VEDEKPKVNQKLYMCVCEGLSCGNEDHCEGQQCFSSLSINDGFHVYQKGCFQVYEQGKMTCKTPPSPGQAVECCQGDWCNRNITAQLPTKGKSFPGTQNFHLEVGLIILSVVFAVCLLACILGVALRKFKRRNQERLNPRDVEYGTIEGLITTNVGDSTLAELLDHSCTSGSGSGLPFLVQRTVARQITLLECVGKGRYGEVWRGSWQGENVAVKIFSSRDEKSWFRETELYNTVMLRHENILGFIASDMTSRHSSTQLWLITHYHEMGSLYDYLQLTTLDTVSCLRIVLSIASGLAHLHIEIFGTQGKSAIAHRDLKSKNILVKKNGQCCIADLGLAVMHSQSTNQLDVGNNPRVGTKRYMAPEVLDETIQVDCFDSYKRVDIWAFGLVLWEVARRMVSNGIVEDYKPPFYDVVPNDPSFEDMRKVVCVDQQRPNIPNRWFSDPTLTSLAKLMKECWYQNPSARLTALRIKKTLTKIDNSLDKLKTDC
The test is described as follows: Luciferase reporter gene assay for ALK2 activity (C2C12 BRE-Luc SMAD1/5/8 reporter, BMP6 agonist). The test is classed as cell-based. Particulars: BMP6 50 ng/mL. As for the experimental part:
(§1) All cell lines were cultured in DMEM, supplemented with […] and 1% Pen/Strep. All media reagents were obtained from Gibco. BMP6, BMP9, and TGFβ were obtained from R&D Systems. C2C12-BRE and HEK293T-SBE were kept in selection with 400 ug/mL G418 from Invivogen.
(§2) In this reporter gene cell based ALK2 and TGFβ assay, the C2C12 cell line was employed for the measurement of ALK2 activity, using a BRE-Luc SMAD1/5/8 reporter and BMP6 as the agonist. The HEK293T cell line was employed to measure TGFβ activity, using a SBE-Luc SMAD2/3 reporter and TGFβ as the agonist. Luciferase reporter assays were read using Promega Steady-Glo Luciferase Assay System.
(§3) Cells were plated in 96 well white clear bottom assay plates at 10 k cells/well for C2C12-BRE, 15 k cells/well for HEK293-SBE in DMEM containing 2% FBS 1% P/S. Cells were given a minimum of 4 hours in incubator at 37° C./5% CO2 to adhere prior to further treatment. Compounds were diluted in DMSO to a 10-point dilution curve and added to the plate to reach the following final concentrations: 10000, 3000, 1000, 300, 100, and 30 nM in the HEK293-SBE assay and 1000, 300, 100, 30, 10, 3, 1, 0.3 nM in the C2C12-BRE assay. Negative and positive control wells received 2 μL DMSO as vehicle treatment. Plates were returned to incubator for 45 minutes and then BMP6 and TGFB were added to a final concentration of 50 ng/mL and 5 ng/mL, respectively. Plates were returned to the incubator and left overnight. After a minimum of 18 hours post BMP6/TGFβ addition, the plates were read using Promega Steady-Glo Luciferase Assay System. A 1:1 mixture of prepared steady-glo and phenol free DMEM was prepared, and 50 μL/well was added to the assay plates whose media had been flicked off. Plates were given 10 minutes post steady-glo addition before luminescence was read on a Spectramax M5e microplate reader. Negative control wells were averaged and subtracted from all other wells on the plate. Inhibition was calculated as the percent of signal loss compared to the averaged positive control wells.
Background: A reporter such as luciferase makes a cellular process visible.

In the next test the test system is TGFβ. Description: Luciferase reporter gene assay for TGFβ activity (HEK293T SBE-Luc SMAD2/3 reporter, TGFβ agonist). Particulars: Homo sapiens, HEK-293T, TGFβ 5 ng/mL. The test is classed as cell-based. As for the experimental part:
as §1, §2, §3

As to `NC(=O)c1ccc(-c2cnn3cc(N4CCN(C5CCNCC5)CC4)cnc23)c2ccccc12` [Compound 3], the negative-log IC50 (pIC50) (commonly the IC50 on a negative log10 scale, so that one unit is a factor of ten) is 7.89 at ALK2 and more than 9.00 in the test with TGFβ.

Turning to `NC(=O)c1cccc2c(-c3cnn4cc(N5CCN(C6CCNCC6)CC5)cnc34)cccc12` [Compound 4], the pIC50 on ALK2 and in the test with TGFβ was less than 5.52 throughout.

On to `CN1CCN(C2CCN(c3cnc4c(-c5ccc(C(N)=O)c6ccccc56)cnn4c3)CC2)CC1` [Compound 9], for which the pIC50 was 7.44 on ALK2 and 7.64 in the test on TGFβ.

Turning to `CN1CCN(C2CCN(c3cnc4c(-c5cccc6c(C(N)=O)cccc56)cnn4c3)CC2)CC1` [Compound 10], the pIC50 on ALK2 was 7.39; in the test with TGFβ, 7.12.

Consider `NC(=O)c1ccc(-c2cnn3cc(N4CCC(N5CCOCC5)CC4)cnc23)c2ccccc12` [Compound 12], for which the figures for the pIC50 at ALK2 and in the test on TGFβ were 7.06 and 6.34, respectively.

As to `NC(=O)c1cccc2c(-c3cnn4cc(N5CCC(N6CCOCC6)CC5)cnc34)cccc12` [Compound 13], the negative-log IC50 (pIC50) on ALK2 is 7.25; in the test on TGFβ, 6.58.

Consider `CN1CCN(C2CCN(c3cnc4c(-c5cn[nH]c5)cnn4c3)CC2)CC1` [Compound 14], for which the pIC50 on ALK2 is 6.73; in the test on TGFβ, less than 5.52.

For `COc1cc2c(-c3cnn4cc(N5CCC(N6CCOCC6)CC5)cnc34)ccnc2cc1F` [Compound 16], the pIC50 was 8.10 on ALK2 and 7.70 with TGFβ.

`COc1cc2nccc(-c3cnn4cc(N5CCC(N6CCN(C)CC6)CC5)cnc34)c2cc1OC` [Compound 17]: the pIC50 at ALK2 is 6.17; in the test on TGFβ, 6.57.

As for `CN1CCN(C2CCN(c3cnc4c(-c5ccnc6cc7c(cc56)OCO7)cnn4c3)CC2)CC1` [Compound 18], the pIC50 on ALK2 was 7.54; in the test with TGFβ it was 6.75.

On to `Cc1cc(-c2cnn3cc(N4CCN(CCN5CCOCC5)CC4)cnc23)c2ccccc2n1` [Compound 19], for which the pIC50 on ALK2 was 6.95; in the test on TGFβ it was 7.19.

For `COc1ccc2nccc(-c3cnn4cc(N5CCC(N6CCN(C)CC6)CC5)cnc34)c2c1` [Compound 20], the results for the pIC50 at ALK2 and in the test on TGFβ were 8.10 and 6.66, respectively.

For the compound `CCOc1ccc2nccc(-c3cnn4cc(N5CCC(N6CCN(C)CC6)CC5)cnc34)c2c1` [Compound 21], the values for the pIC50 at ALK2 and in the test on TGFβ were 7.57 and 5.89, respectively.

For the compound `Cc1cc(-c2cnn3cc(N4CCN(C5CCOCC5)CC4)cnc23)c2ccccc2n1` [Compound 22], the pIC50 at ALK2 is 6.58; in the test with TGFβ, 7.07.

Consider `Cc1cc(-c2cnn3cc(N4CCN(C5CCNCC5)CC4)cnc23)c2ccccc2n1` [Compound 23], for which the pIC50 at ALK2 is 6.84; in the test on TGFβ, 7.06.

For `CC(=O)N1CCC(N2CCN(c3cnc4c(-c5cc(C)nc6ccccc56)cnn4c3)CC2)CC1` [Compound 24], the values for the pIC50 on ALK2 and in the test on TGFβ were 6.65 and 7.25, respectively.

In the case of `CN1CCN(C2CCN(c3cnc4c(-c5cnn6ccccc56)cnn4c3)CC2)CC1` [Compound 26], the pIC50 on ALK2 is 6.48; with TGFβ it was 6.93.

For the compound `Cc1cc(-c2cnn3cc(N4CCN(c5ccncc5)CC4)cnc23)c2ccccc2n1` [Compound 27], the results for the pIC50 on ALK2 and in the test on TGFβ were 8.15 and 8.00, respectively.

On to `COc1cc2c(-c3cnn4cc(N5CCC(N6CCN(C)CC6)CC5)cnc34)ccnc2cc1Cl` [Compound 28], for which the results for the pIC50 at ALK2 and in the test on TGFβ were 7.14 and 6.61, respectively.

Turning to `COc1cc2c(-c3cnn4cc(N5CCC(N6CCN(C)CC6)CC5)cnc34)ccnc2cc1C` [Compound 29], the negative-log IC50 (pIC50) on ALK2 is 7.08; in the test with TGFβ, 6.42.

`COc1ccc2nccc(-c3cnn4cc(N5CCC(N6CCOCC6)CC5)cnc34)c2c1` [Compound 30]: the figures for the pIC50 on ALK2 and in the test on TGFβ were 7.43 and 6.92, respectively.

Regarding `Cn1cc(-c2cnn3cc(N4CCC(N5CCOCC5)CC4)cnc23)c2ccccc2c1=O` [Compound 32], the pIC50 on ALK2 is 7.60; in the test with TGFβ it was 7.43.

`Cc1cc(-c2cnn3cc(N4CCN(C5(C)CCNCC5)CC4)cnc23)c2ccccc2n1` [Compound 33]: the pIC50 on ALK2 is 7.03; with TGFβ, 7.43.
